Assay results taken from US20060247271A1, “Sulphonyl hydroxamic acid derivatives as inhibitors of s-cd23” (priority 2003, published 2006).

What was measured:
[1] = molecular target: T1, human recombinant collagenase (Homo sapiens, UniProt P03956); assay: Collagenase inhibition assay; format: biochemical; settings: 37° C., 18 h, acetylated 3H type 1 bovine collagen
T1 construct: made in house; host or cells: E. coli
T1 sequence (P03956 100-469): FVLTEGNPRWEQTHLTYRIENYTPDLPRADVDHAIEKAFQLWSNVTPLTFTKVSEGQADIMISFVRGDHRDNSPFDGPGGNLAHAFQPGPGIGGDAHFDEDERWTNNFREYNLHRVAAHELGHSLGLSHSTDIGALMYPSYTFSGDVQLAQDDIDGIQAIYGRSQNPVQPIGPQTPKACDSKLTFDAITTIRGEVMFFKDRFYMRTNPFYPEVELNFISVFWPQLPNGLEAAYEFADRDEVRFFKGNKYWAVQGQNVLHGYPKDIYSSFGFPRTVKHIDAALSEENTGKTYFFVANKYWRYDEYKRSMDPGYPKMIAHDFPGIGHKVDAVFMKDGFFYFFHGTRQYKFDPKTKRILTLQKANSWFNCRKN
Experimental: Procedure 2: The ability of test compounds to inhibit matrix metalloproteases was investigated using the following procedures.
Collagenase Inhibition Assay:
The potency of compounds to act as inhibitors of collagenase was determined by the method of Cawston and Barrett (Anal. Biochem. 99, 340-345, 1979), hereby incorporated by reference, whereby a 1 mM solution of the inhibitor being tested or dilutions thereof, was incubated at 37° C. for 18 h with collagen and human recombinant collagenase, from synovial fibroblasts cloned, expressed and purified from E. Coli, (buffered with 150 mM Tris, pH 7.6, containing 15 mM calcium chloride, 0.05% Brij 35, 200 mM sodium chloride and 0.02% sodium azide). The collagen was acetylated ^3H type 1 bovine collagen prepared by the method of Cawston and Murphy (methods in Enzymology 80, 711,1981) The samples were centrifuged to sediment undigested collagen and an aliquot of the radioactive supernatant removed for assay on a scintillation counter as a measure of hydrolysis. The collagenase activity in the presence of 1 mM inhibitor, or dilution thereof, was compared to activity in a control devoid of inhibitor and the results reported as that concentration effecting 50% of the collagenase (IC50).

MMP-3 = molecular target: T2, MMP-3 (Homo sapiens, UniProt P08254); assay: General MMP inhibition fluorescence quench assay, MMP-3; format: biochemical; settings: room temperature
T2 construct: purchased Calbiochem
T2 sequence (P08254 100-477, species assumed): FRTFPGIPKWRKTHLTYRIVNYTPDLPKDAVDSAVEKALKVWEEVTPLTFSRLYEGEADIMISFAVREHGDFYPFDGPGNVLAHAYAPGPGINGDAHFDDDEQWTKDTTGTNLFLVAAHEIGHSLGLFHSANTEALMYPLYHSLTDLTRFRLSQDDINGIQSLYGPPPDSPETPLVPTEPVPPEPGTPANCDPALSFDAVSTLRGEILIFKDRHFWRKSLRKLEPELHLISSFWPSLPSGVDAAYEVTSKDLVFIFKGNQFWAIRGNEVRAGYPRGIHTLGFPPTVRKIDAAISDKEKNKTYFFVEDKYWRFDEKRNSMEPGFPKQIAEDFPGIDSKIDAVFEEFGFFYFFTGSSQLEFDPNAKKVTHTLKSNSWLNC
Experimental: (§1) General MMP Inhibition Assays:
(§2) Inhibition of matrix metalloprotease activity was determined using a fluorescence quench assay with appropriate substrate. For example, MMP activity was determined using MMP activated using trypsin, according to Lark et al, Connective Tissue Res. 25, 52 (1990). The MMP is incubated at room temperature in a microtitre plate in a total volume of 100 ul, containing 0.15 M Tris Cl, 15 mM CaCl2, 0.2 M NaCl, pH 7.6 (assay buffer); inhibitor at concentrations up to 100 uM, with no more than 2% DMSO final concentration, 10 uM substrate (such as SDP-3815-PI for MMP-1, Peptides International). The MMP concentration is <10 nM, and determined empirically with the appropriate substrate to give at least a 20-fold increase in fluorescence emission in 30 min. Fluorescent excitation wavelength was 355 nm, emission wavelength 400-460 nm, and data points are collected to generate slope (change in fluorescence with time). Percent inhibition for each concentration is calculated from the slope at time zero, and IC50 values from the concentration dependence. MMP-1, 2, 3, 7, 9, 13, 14 may all be assayed in the same manner, using commercially available substrates reported to be effective for each enzyme. Enzymes were obtained from Calbiochem and activated using the same trypsin method.

[2] = tested on: release of soluble CD23 (RPMI 8866 cell plasma membranes); assay: RPMI 8866 cell membrane CD23 cleavage activity assay; format: biochemical, human; settings: RPMI 8866 plasma membranes, 37° C., sCD23 by EIA; read-out: IC50, inhibition of production of sCD23
Experimental: Procedure 1: The ability of test compounds to inhibit the release of soluble CD23 was investigated by use of the following procedure.
RPMI 8866 Cell Membrane CD23 Cleavage Activity Assay:
Plasma membranes from RPMI 8866 cells, a human Epstein-Barr virus transformed B-cell line (Sarfati et al., Immunology 60 [1987] 539-547) expressing high levels of CD23 are purified using an aqueous extraction method. Cells resuspended in homogenization buffer (20 mM HEPES pH 7.4, 150 mM NaCl, 1.5 mM MgCl2, 1 mM DTT) are broken by N2 cavitation in a Parr bomb and the plasma membrane fraction mixed with other membranes is recovered by centrifugation at 10,000×g. […]
The fractionated membranes are incubated at 37° C. for times up to 4 hrs to produce fragments of CD23 which are separated from the membrane by filtration in 0.2 micron Durapore filter plates (Millipore) after quenching the assay with 5 uM Preparation 1 from WO 95/31457 ([4-(N-Hydroxyamino)-2-(R)-isobutyl-3-(S)-(2-thiophenethiomethyl)succinyl]-(S)-phenylalanine—methylamide sodium salt, prepared according to the procedure descibed in Example 11 of WO 90/05719). sCD23 released from the membrane is determined using the EIA kit from The Binding Site (Birmingham, UK) or a similar one utilising MHM6 anti-CD23 mAb [Rowe et al., Int. […]

MMP-13 = molecular target: T3, MMP-13 (Homo sapiens, UniProt P45452); assay: General MMP inhibition fluorescence quench assay, MMP-13; format: biochemical; settings: room temperature
T3 construct: purchased Calbiochem
Experimental: as §1, §2

IC50 [1]	IC50 (MMP-3)	IC50 [2]	IC50 (MMP-13)	Compound
> 10 µM	> 10 µM	0.01 µM		O=C(NO)C(CS(=O)(=O)Cc1cnc2ccccc2c1)c1ccccc1 (centres unmarked) [Example 1, N-Hydroxy-2-phenyl-3-(3-quinolylmethanesulfonyl)-propionamide]
		0.11 µM	7 µM	CCCO[C@@H](CS(=O)(=O)Cc1cnc2ccccc2c1)C(=O)NO [Example 2, (R)—N-Hydroxy-2-propoxy-3-(quinolin-3-ylmethanesulfonyl)-propionamide]
